In article PMC12040169 (PLOS Biology, 2025) one finds viability data, which are given here for 81 compounds.

Structures are written as SMILES.

A short description of this data set: in vitro. The following applies: human, hela cells, % viability.
`COc1cccc(CN(C)CCN(C)C)c1O` [CBK261905]: the viability – broadly, a read-out of living cells in per cent, often relative to untreated cells – at 28.5 h, 10 µM was determined as 102%.

On to `OCCN(CCO)CC1CC=CCC1` (stereo not drawn) [CBK261907], for which the viability at 28.5 h, 10 µM was found to be 108%.

For the compound `OCCN(Cc1ccccc1)Cc1ccc(Cl)c(Cl)c1` [CBK261908], the viability at 28.5 h, 10 µM was 117%.

Consider `COc1ccc(CCN(C)Cc2ccccn2)cc1OC` [CBK261912], for which the viability at 28.5 h, 10 µM amounted to 88.8%.

Take `COc1ccc2ccccc2c1CN1CCN(Cc2ccccc2)CC1` [CBK261913]: the viability at 28.5 h, 10 µM turned out to be 98.5%.

On to `CCN(CCC(C)c1ccccc1)CCN(C)C` (stereo not drawn) [CBK261914], for which the viability at 28.5 h, 10 µM worked out at 94.6%.

As for `Fc1ccc(N2CCN(Cc3cccc(OCc4ccccc4)c3)CC2)cc1` [CBK261916], the viability at 28.5 h, 10 µM was 94.6%.

In the case of `CCN(CC)CCN(C)C1CCN(C)CC1` [CBK261917], the viability at 28.5 h, 10 µM turned out to be 94.7%.

As for `CCCN1CCC(N2CCN(CCO)CC2)CC1` [CBK261920], the viability at 28.5 h, 10 µM was found to be 79.9%.

In the case of `CN(C)c1ccc(CN(CCO)CCO)cc1` [CBK261921], the viability at 28.5 h, 10 µM was 88.3%.

For `C(=C\c1ccccc1)/CN1CCN(C2CCN(CCc3ccccc3)CC2)CC1` [CBK261923], the viability at 28.5 h, 10 µM came to 108%.

Take `CCn1c2ccccc2c2cc(CN(CCN(C)C)Cc3ccccc3)ccc21` [CBK261924]: the viability at 28.5 h, 10 µM came out at 102%.

For `CN1CCC(N(C)C2CCN(Cc3ccccc3)CC2)CC1` [CBK261925], the viability at 28.5 h, 10 µM is 85.8%.

In the case of `c1ccc(CCN2CCC(N3CCOCC3)CC2)cc1` [CBK261928], the viability at 28.5 h, 10 µM was 85.2%.

On to `CN(C)CCN(C)C1CCN(Cc2ccccc2)CC1` [CBK261930], for which the viability at 28.5 h, 10 µM came to 102%.

Consider `S=C(Nc1ccccc1)NC1C2CN3CCN(C2)CC1(c1ccccc1)C3` (stereo not drawn) [CBK261936], for which the viability at 28.5 h, 10 µM was 88.6%.

On to `CC(=O)Nc1ccccc1/C=C/c1ccc2c(C)cc(C)c(O)c2n1` [CBK261937], for which the viability at 28.5 h, 10 µM was 106%.

Take `CC(C)(C)c1cc(CCCOC(=O)CNc2ccccc2)cc(C(C)(C)C)c1O` [CBK261939]: the viability at 28.5 h, 10 µM came out at 101%.

For `O=C(O)CCNS(=O)(=O)c1ccc(Br)cc1` [CBK261941], the viability at 28.5 h, 10 µM was found to be 90.6%.

With `COc1ccc(C(CC(=O)O)C(=O)O)cc1OC` (stereo not drawn) [CBK261943], the viability at 28.5 h, 10 µM came out at 90.4%.

Consider `O=C(CNC(=O)c1cccc(Cl)c1)N/N=C/C=C/c1ccccc1` [CBK261947], for which the viability at 28.5 h, 10 µM worked out at 90.4%.

`O=[N+]([O-])c1ccc(NCCNS(=O)(=O)c2ccccc2)cc1` [CBK261948]: the viability at 28.5 h, 10 µM came to 96.1%.

Take `CCN(CC)CCOc1c(C)cccc1Cl` [CBK261950]: the viability at 28.5 h, 10 µM stood at 95.9%.

Take `CC1(C)CC(NC(=O)C(=O)NC2CC(C)(C)NC(C)(C)C2)CC(C)(C)N1` [CBK261951]: the viability at 28.5 h, 10 µM amounted to 98.9%.

`O=C(CNC(=O)c1ccccc1F)N/N=C/c1cccs1` [CBK261953]: the viability at 28.5 h, 10 µM was found to be 97.8%.

With `COc1c(O)ccc(/C=N/NC(=O)COc2c(Br)cc(Br)cc2Br)c1[N+](=O)[O-]` [CBK261957], the viability at 28.5 h, 10 µM came to 95.9%.

For `O=C(N/N=C\c1ccc([N+](=O)[O-])o1)c1nc(-c2ccccc2)cc(-c2ccccc2)n1` [CBK261958], the viability at 28.5 h, 10 µM came out at 95.5%.

Regarding `CC(C)(C)c1cc(CCC(=O)N/N=C/c2ccco2)cc(C(C)(C)C)c1O` [CBK261960], the viability at 28.5 h, 10 µM is 110%.

On to `O=C(N/N=C\c1cccc(O)c1)C(=O)N/N=C/c1cccc(O)c1` [CBK261962], for which the viability at 28.5 h, 10 µM was 87.6%.

For `CC(C)(C)c1cc(CCC(=O)N2CCN(C(=O)CCc3cc(C(C)(C)C)c(O)c(C(C)(C)C)c3)CC2)cc(C(C)(C)C)c1O` [CBK261963], the viability at 28.5 h, 10 µM was determined as 91.1%.

For `COc1ccccc1/C=N/NC(=O)COc1c(Br)cc(Br)cc1Br` [CBK261966], the viability at 28.5 h, 10 µM was determined as 95.2%.

Regarding `NNC(=O)CNS(=O)(=O)c1ccccc1` [CBK261967], the viability at 28.5 h, 10 µM was determined as 97.9%.

`O=C(CCC(=O)Nc1ccccc1)N/N=C/c1ccco1` [CBK261968]: the viability at 28.5 h, 10 µM was determined as 108%.

As to `O=C(CNC(=O)c1ccccc1)N/N=C/c1ccc(C(=O)O)cc1` [CBK261976], the viability at 28.5 h, 10 µM was found to be 102%.

With `Nc1ccc(Oc2ccc3nc4c5cc(I)ccc5c5ccc(I)cc5c4nc3c2)cc1` [CBK261978], the viability at 28.5 h, 10 µM is 87.6%.

Turning to `O=C1c2ccccc2-c2onc3c(NCc4ccccc4)cc(Nc4ccccc4)c1c23` [CBK261979], the viability at 28.5 h, 10 µM came out at 84%.

As to `C/C(=C\C(=O)NC1CC(C)(C)NC(C)(C)C1)NC1CC(C)(C)NC(C)(C)C1` [CBK261982], the viability at 28.5 h, 10 µM is 113%.

Turning to `Cc1ccc(S(=O)(=O)N=C2NCN(CC(=O)O)CN2)cc1` [CBK261983N], the viability at 28.5 h, 10 µM turned out to be 93.6%.

Consider `CC1(C)CC(NC(=O)CCc2cc(C(C)(C)C)c(O)c(C(C)(C)C)c2)CC(C)(C)N1` [CBK261986], for which the viability at 28.5 h, 10 µM came out at 88.9%.

For `Nc1nonc1-n1nnc(C(=O)N/N=C2\CCc3ccccc32)c1-c1ccccc1` [CBK261988], the viability at 28.5 h, 10 µM amounted to 95.1%.

Turning to `COc1ccccc1C(=O)NCC(=O)N/N=C/c1ccc(N(C)C)cc1` [CBK261989], the viability at 28.5 h, 10 µM stood at 104%.

On to `CC(C)(C)c1cc(CN(Cc2cc(C(C)(C)C)c(O)c(C(C)(C)C)c2)/N=C\c2ccccc2O)cc(C(C)(C)C)c1O` [CBK261990], for which the viability at 28.5 h, 10 µM amounted to 101%.

In the case of `Cc1cc(I)ccc1NC(=O)CCC(=O)N/N=C/c1ccco1` [CBK261991], the viability at 28.5 h, 10 µM was found to be 99.4%.

Take `CC(C)(C)c1cc(CN(Cc2cc(C(C)(C)C)c(O)c(C(C)(C)C)c2)C2CCCCC2)cc(C(C)(C)C)c1O` [CBK261996]: the viability at 28.5 h, 10 µM amounted to 106%.

For `c1ccc2c(OCCOCCN3CCCCC3)cccc2c1` [CBK262000], the viability at 28.5 h, 10 µM was 88%.

On to `Oc1ccccc1/C=N/Nc1nnc(-c2ccccc2)c(-c2ccccc2)n1` [CBK262003], for which the viability at 28.5 h, 10 µM came out at 93%.

Consider `CC1(C)CC(/N=C(\c2ccccc2)c2ccc(O)cc2O)CC(C)(C)N1` [CBK262004], for which the viability at 28.5 h, 10 µM was 101%.

Take `O=[N+]([O-])c1ccc(NCCCNS(=O)(=O)c2ccc3ccccc3c2)c(Cl)c1` [CBK262006]: the viability at 28.5 h, 10 µM came out at 79.3%.

As to `O=C(CCC(=O)Nc1ccc(I)cc1)N/N=C/c1ccc(Br)cc1` [CBK262010], the viability at 28.5 h, 10 µM is 88.9%.

In the case of `C[N+](C)(C)CCC(=O)CCC(=O)O` [CBK262012I], the viability at 28.5 h, 10 µM came to 102%.

`COc1cc(/C=N/NC(=O)CNC(=O)c2ccncc2)ccc1O` [CBK262013]: the viability at 28.5 h, 10 µM stood at 102%.

Consider `Cc1cc(O)n(-c2cc(-c3ccccc3)nc(-c3ccccc3)n2)n1` [CBK262014], for which the viability at 28.5 h, 10 µM came out at 95.5%.

With `COc1cc(/C=N/CC/N=C/c2ccc(O)c(OC)c2)ccc1O` [CBK262015], the viability at 28.5 h, 10 µM was 106%.

As for `NNC(=O)Nc1ccc(Cc2ccc(NC(=O)NN)cc2)cc1` [CBK262017], the viability at 28.5 h, 10 µM turned out to be 88.5%.

With `C/C(=N\NC(=O)CNC(=O)c1ccc(Br)cc1)c1ccccc1` [CBK262020], the viability at 28.5 h, 10 µM is 103%.

For the compound `Cc1cccc(NC(=O)CCC(=O)N/N=C/c2cccnc2)c1` [CBK262023], the viability at 28.5 h, 10 µM worked out at 103%.

On to `O=C(CN1C(=O)c2ccccc2C1=O)Nc1cc(C(=O)O)cc(C(=O)O)c1` [CBK262024], for which the viability at 28.5 h, 10 µM was found to be 102%.

`C(=N\Nc1nnc(-c2ccccc2)c(-c2ccccc2)n1)/c1cccnc1` [CBK262025]: the viability at 28.5 h, 10 µM came to 91.8%.

As to `O=[N+]([O-])c1ccc(-c2ccc(/C=N/Nc3nnc4c(n3)[nH]c3ccccc34)o2)cc1` [CBK262029], the viability at 28.5 h, 10 µM was 90.4%.

With `O=[N+]([O-])c1ccccc1NC1OCC(O)C(O)C1O` (stereo not drawn) [CBK262032], the viability at 28.5 h, 10 µM is 90.3%.

With `O=C1Nc2ccc(S(=O)(=O)NCCCO)c3cccc1c23` [CBK262033], the viability at 28.5 h, 10 µM stood at 85.9%.

On to `Clc1ccc(/C=N/Nc2nnn[nH]2)c(Cl)c1` [CBK262034], for which the viability at 28.5 h, 10 µM is 98%.

Regarding `O=C(O)CS(=O)(=O)c1ccc(Cl)cc1` [CBK262036G], the viability at 28.5 h, 10 µM came to 114%.

Take `N/C(=N\OCC(=O)Nc1cccc([N+](=O)[O-])c1)c1nonc1N` [CBK262044]: the viability at 28.5 h, 10 µM was found to be 90%.

`CN(C)CC(C)(C)CNC=C1C(=O)CC(C)(C)CC1=O` [CBK262046]: the viability at 28.5 h, 10 µM was determined as 99.9%.

On to `O=C(NN=Cc1ccc(O)cc1)c1cc[n+](Cc2ccccc2)cc1` [CBK262047C], for which the viability at 28.5 h, 10 µM stood at 87.3%.

Consider `Cc1nn(-c2ccccc2)c(O)c1/C=N/c1ccccc1Sc1c(C)n[nH]c1C` [CBK262048], for which the viability at 28.5 h, 10 µM amounted to 89.1%.

Turning to `O=C(OCc1ccccc1)Oc1cncc(C(=O)O)c1` [CBK262053], the viability at 28.5 h, 10 µM is 91.1%.

Regarding `Cc1n[nH]c(C)c1Sc1ccccc1/N=C/c1ccc(C(=O)O)cc1` [CBK262055], the viability at 28.5 h, 10 µM worked out at 86.9%.

As for `O=C(O)CCSc1nc2ccccc2[nH]1` [CBK262056], the viability at 28.5 h, 10 µM was 96.2%.

Take `CC1(C)CC(=O)C(=CNCCC(c2ccccc2)c2ccccc2)C(=O)C1` [CBK262057]: the viability at 28.5 h, 10 µM was 114%.

Take `CCSc1nc2ccccc2n1CC(=O)O` [CBK262059]: the viability at 28.5 h, 10 µM turned out to be 87.7%.

`O=C(O)CCCNC(=O)c1cncc(O)c1` [CBK262060]: the viability at 28.5 h, 10 µM was 81.8%.

For `Cc1ccc(OCC(O)CN(C)S(=O)(=O)O)c([N+](=O)[O-])c1` (stereo not drawn) [CBK262062K], the viability at 28.5 h, 10 µM was determined as 85.3%.

With `O=C(C[n+]1cccc(C(=O)N/N=C/c2ccc(Br)cc2)c1)c1ccccc1` [CBK262063B], the viability at 28.5 h, 10 µM was found to be 90.1%.

On to `O=C(Oc1ccc(/C=N/Nc2nc(N3CCOCC3)nc(N3CCOCC3)n2)cc1)c1ccccc1` [CBK262064], for which the viability at 28.5 h, 10 µM was found to be 107%.

`c1ccc(C(=NCCN=C(c2ccccc2)c2ccccc2)c2ccccc2)cc1` [CBK262065]: the viability at 28.5 h, 10 µM was 113%.

In the case of `Cc1n[nH]c(C)c1Sc1ccccc1/N=C/c1ccccc1O` [CBK262068], the viability at 28.5 h, 10 µM was found to be 93%.

As for `O=C(O)CSc1ncnc2ccccc12` [CBK262069], the viability at 28.5 h, 10 µM was 94.4%.

As to `Cc1cc(C)nc(SCc2c(C)c(C)c(CSc3nc(C)cc(C)n3)c(C)c2C)n1` [CBK262070], the viability at 28.5 h, 10 µM worked out at 109%.

Consider `CCC1CCCCN1S(=O)(=O)c1cccc2c(S(=O)(=O)N3CCCCC3CC)cccc12` (stereo not drawn) [CBK262073], for which the viability at 28.5 h, 10 µM was found to be 92.8%.
